Measurements published in patent US9695155B2, “Herbicidal substituted pyrimidinyloxy benzene compounds” (E. I. DU PONT DE NEMOURS AND COMPANY, priority 2013, dated 2017).

Assays:
sedge, umbrella = test: Test B flooded paddy test; assay type: in vivo, Cyperus difformis; conditions: Flood, 250 g ai/ha; 0 to 100 scale where 0 is no effect and 100 is complete control
Summary of the method: (§1)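 2-leaf stage plants; pots flooded to 3 cm, compound added to paddy water, depth maintained. Greenhouse 13–15 d. Visual rating vs untreated controls, 0 (no effect) to 100 (complete control); dash = no result.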

galium = test: Test C postemergence; assay type: in vivo, Galium aparine; conditions: for Plant response rating (0 to 100), Galium: 16 g ai/ha, 0 is no effect, 100 is complete control
Text: (§2) Seeds of plant species selected from blackgrass (Alopecurus myosuroides), Italian ryegrass (Lolium multiflorum), wheat, winter (winter wheat, Triticum aestivum), galium (catchweed bedstraw, Galium aparine), corn (Zea mays), large (Lg) crabgrass (Digitaria sanguinalis), giant foxtail (Setaria faberii), johnsongrass (Sorghum halepense), lambsquarters (Chenopodium album), morningglory (Ipomoea coccinea), yellow nutsedge (Cyperus esculentus), pigweed (Amaranthus retroflexus), ragweed (common ragweed, Ambrosia elatior), soybean (Glycine max), barnyardgrass (Echinochloa crus-galli), oilseed rape (Brassica napus), waterhemp (common waterhemp, Amaranthus rudis), kochia (Kochia scoparia), wild oat (Avena fatua), surinam grass (Brachiaria decumbens), foxtail, green (green foxtail, Setaria viridis), goosegrass (Eleusine indica), bromegrass, downy (downy bromegrass, Bromus tectorum), nightshade (eastern black nightshade, Solanum ptycanthum), cocklebur (common cocklebur, Xanthium strumarium), cupgrass, woolly (woolly cupgrass, Eriochloa villosa), bermudagrass (Cynodon dactylon), sunflower, (common oilseed sunflower, Helianthus annuus), Russian thistle (Salsola kali), and velvetleaf (Abutilon theophrasti) were planted into a blend of loam soil and sand and treated preemergence with test chemicals formulated in a non-phytotoxic solvent mixture which included a surfactant.
(§3) At the same time, plants selected from these crop and weed species and also barley, winter (winter barley, Hordeum vulgare), windgrass (Apera spica-venti), chickweed (common chickweed, Stellaria media), deadnettle (henbit deadnettle, Lamium amplexicaule), and canarygrass (littleseed canarygrass, Phalaris minor) were planted in pots containing Redi-Earth® planting medium (Scotts Company, 14111 Scottslawn Road, Marysville, Ohio 43041) comprising spaghnum peat moss, vermiculite, wetting agent and starter nutrients and treated with postemergence applications of test chemicals formulated in the same manner. Plants ranged in height from 2 to 18 cm (1- to 4-leaf stage) for postemergence treatments. Treated plants and controls were maintained in a greenhouse for 13 to 15 days, after which time all species were compared to controls and visually evaluated. Plant response ratings, summarized in Table C, are based on a scale of 0 to 100 where 0 is no effect and 100 is complete control. A dash (-) response means no test result.

ragweed = test: Test C postemergence; assay type: in vivo, Ambrosia elatior; conditions: for Plant response rating (0 to 100), Ragweed: 16 g ai/ha, 0 is no effect, 100 is complete control
Text: as §2, §3

barnyardgrass [1] = test: Test B flooded paddy test; assay type: in vivo, Echinochloa crus-galli; conditions: Flood, 250 g ai/ha; 0 to 100 scale where 0 is no effect and 100 is complete control
Summary of the method: as §1

giant foxtail = test: Test A preemergence; assay type: in vivo, Setaria faberii; conditions: for Plant response rating, Foxtail, Giant / Foxtail, Giant plant response rating: 0 to 100 scale where 0 is no effect and 100 is complete control; for Foxtail, Giant plant response rating: 500 g ai/ha
Summary of the method: (§4)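 Visual injury scored 0–100 (100 = complete control) against untreated controls about 10 days after treatment in a greenhouse. Test chemicals, formulated with surfactant in non-phytotoxic solvent, were sprayed on soil preemergence or on 2-10 cm, one- to two-leaf plants postemergence.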

wheat, winter = test: Test C postemergence; assay type: in vivo, Triticum aestivum; conditions: for Plant response rating (0 to 100), Wheat: 16 g ai/ha, 0 is no effect, 100 is complete control
Text: as §2, §3

Heteranthera limosa = test: Test B flooded paddy test; assay type: in vivo; conditions: Flood, 250 g ai/ha; 0 to 100 scale where 0 is no effect and 100 is complete control
Summary of the method: as §1

yellow nutsedge = test: Test C postemergence; assay type: in vivo, Cyperus esculentus; conditions: for Plant response rating (0 to 100), Nutsedge, Yellow: 16 g ai/ha, 0 is no effect, 100 is complete control
Text: as §2, §3

barnyardgrass [2] = test: Test A preemergence; assay type: in vivo, Echinochloa crus-galli; conditions: for Plant response rating, Barnyardgrass / Barnyardgrass plant response rating: 0 to 100 scale where 0 is no effect and 100 is complete control; for Barnyardgrass plant response rating: 500 g ai/ha
Summary of the method: as §4

lambsquarters = test: Test C postemergence; assay type: in vivo, Chenopodium album; conditions: for Plant response rating (0 to 100), Lambsquarters: 16 g ai/ha, 0 is no effect, 100 is complete control
Text: as §2, §3

rice = test: Test B flooded paddy test; assay type: in vivo, Oryza sativa; conditions: Flood, 250 g ai/ha; 0 to 100 scale where 0 is no effect and 100 is complete control
Summary of the method: as §1

velvetleaf = test: Test C postemergence; assay type: in vivo, Abutilon theophrasti; conditions: for Plant response rating, Velvetleaf: scale 0 to 100 (0 no effect, 100 complete control)
Text: as §2, §3

morningglory = test: Test C postemergence; assay type: in vivo, Ipomoea coccinea; conditions: for Plant response rating (0 to 100), Morningglory: 16 g ai/ha, 0 is no effect, 100 is complete control
Text: as §2, §3

chickweed = test: Test C postemergence; assay type: in vivo, Stellaria media; conditions: for Plant response rating (0 to 100), Chickweed: 16 g ai/ha, 0 is no effect, 100 is complete control
Text: as §2, §3

corn = test: Test A preemergence; assay type: in vivo, Zea mays; conditions: for Plant response rating, Corn / Corn plant response rating: 0 to 100 scale where 0 is no effect and 100 is complete control; for Corn plant response rating: 500 g ai/ha
Summary of the method: as §4

wheat = test: Test A preemergence; assay type: in vivo, Triticum aestivum; conditions: for Wheat plant response rating (0 to 100 scale): 125 g ai/ha; for Wheat plant response rating: 500 g ai/ha, 0 to 100 scale where 0 is no effect and 100 is complete control
Summary of the method: as §4

[3] = 125 g ai/ha, postemergence, visual rating, scale 0 to 100 (0 no effect, 100 complete control)
[4] = Postemergence, 62 g ai/ha, scale 0 to 100 (0 no effect, 100 complete control)
[5] = 31 g ai/ha, postemergence, visual rating, scale 0 to 100 (0 no effect, 100 complete control), 13 to 15 days

SMILES	Plant response rating, Sedge, Umbrella (sedge, umbrella)	Plant response rating (0 to 100), Galium (galium; postemergence)	Plant response rating, Galium (galium; [3])	Plant response rating, Galium (galium; [4])	Plant response rating (0 to 100), Ragweed (ragweed; postemergence)	Plant response rating, Ragweed (ragweed; [3])	Plant response rating, Ragweed (ragweed; [4])	Plant response rating, Barnyardgrass (barnyardgrass [1])	Plant response rating, Foxtail, Giant (giant foxtail; 125 g ai/ha)	Foxtail, Giant plant response rating (giant foxtail)	Plant response rating (0 to 100), Wheat (wheat, winter; postemergence)	Plant response rating, Wheat (wheat, winter; [3])	Plant response rating, Wheat (wheat, winter; [4])	Plant response rating, Ducksalad (Heteranthera limosa)	Plant response rating, Barnyardgrass (barnyardgrass [2]; 125 g ai/ha)	Barnyardgrass plant response rating (barnyardgrass [2])	Plant response rating, Rice (rice)	Corn plant response rating (corn)	Wheat plant response rating (0 to 100 scale) (wheat)	Wheat plant response rating (wheat)	further results
Clc1cnc(Oc2cccc(Br)c2-n2cc(I)nn2)nc1 [Compound 117]	20	80	80	70	25	60	35	0	90	100	0	20	5	40	30	90	0	–	–	–	Plant response rating (0 to 100), Nutsedge, Yellow (yellow nutsedge; postemergence): 5; Plant response rating, Nutsedge, Yellow (yellow nutsedge; [3]): 5; Plant response rating, Nutsedge, Yellow (yellow nutsedge; [4]): 5; Plant response rating (0 to 100), Lambsquarters (lambsquarters; postemergence): 45; Plant response rating, Lambsquarters (lambsquarters; [3]): 75; Plant response rating, Lambsquarters (lambsquarters; [4]): 50; Plant response rating (0 to 100), Velvetleaf (velvetleaf; 16 g ai/ha, postemergence, 0 is no effect, 100 is complete control): 10; Plant response rating, Velvetleaf (velvetleaf; 125 g ai/ha, postemergence, visual rating): 45; Plant response rating, Velvetleaf (velvetleaf; Postemergence, 62 g ai/ha): 30; Plant response rating (0 to 100), Morningglory (morningglory; postemergence): 80; Plant response rating, Morningglory (morningglory; [3]): 90; Plant response rating, Morningglory (morningglory; [4]): 90; Plant response rating (0 to 100), Chickweed (chickweed; postemergence): 50; Plant response rating, Chickweed (chickweed; [3]): 80; Plant response rating, Chickweed (chickweed; [4]): 70
N#Cc1cnn(-c2c(C#N)cccc2Oc2ncc(Br)cn2)c1 [Compound 135]	75	–	–	–	–	–	–	30	70	100	–	–	–	70	40	90	0	–	–	–	–
FC(F)c1cccc(Oc2ncc(Br)cn2)c1-n1cc(C(F)(F)F)cn1 [Compound 163]	90	70	95	85	10	60	35	0	100	100	0	5	0	90	50	100	25	10	0	10	Galium plant response rating (galium; [5]): 50; Ragweed plant response rating (ragweed; [5]): 35; Wheat plant response rating (wheat, winter; [5]): 0; Plant response rating (0 to 100), Nutsedge, Yellow (yellow nutsedge; postemergence): 5; Nutsedge, Yellow plant response rating (yellow nutsedge; [5]): 5; Plant response rating, Nutsedge, Yellow (yellow nutsedge; [3]): 5; Plant response rating, Nutsedge, Yellow (yellow nutsedge; [4]): 5; Plant response rating (0 to 100), Lambsquarters (lambsquarters; postemergence): 60; Lambsquarters plant response rating (lambsquarters; [5]): 80; Plant response rating, Lambsquarters (lambsquarters; [3]): 95; Plant response rating, Lambsquarters (lambsquarters; [4]): 85; Plant response rating (0 to 100), Morningglory (morningglory; postemergence): 20; Morningglory plant response rating (morningglory; [5]): 50; Plant response rating, Morningglory (morningglory; [3]): 90; Plant response rating, Morningglory (morningglory; [4]): 65; Plant response rating (0 to 100), Chickweed (chickweed; postemergence): 40; Chickweed plant response rating (chickweed; [5]): 80; Plant response rating, Chickweed (chickweed; [3]): 95; Plant response rating, Chickweed (chickweed; [4]): 80; Plant response rating, Corn (corn; 125 g ai/ha): 0
NC(=S)c1cccc(Oc2ncc(Cl)cn2)c1-n1cc(Cl)cn1 [Compound 292]	75	–	–	–	–	–	–	20	–	100	–	–	–	45	–	100	20	30	10	30	Foxtail, Giant plant response rating (0 to 100 scale) (giant foxtail; 125 g ai/ha): 100; Barnyardgrass plant response rating (0 to 100 scale, 0 is no effect, 100 is complete control) (barnyardgrass [2]; 125 g ai/ha): 80; Corn plant response rating (0 to 100 scale) (corn; 125 g ai/ha): 20
FC(F)c1cccc(Oc2ncc(Cl)cn2)c1-n1cc(C(F)(F)F)cn1 [Compound 170]	90	–	–	–	–	–	–	70	100	90	–	–	–	95	90	100	50	20	20	20	Plant response rating, Corn (corn; 125 g ai/ha): 0
